Data from ChEMBL document CHEMBL1201862, “PubChem BioAssay data set” (2004).
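Exposure lasted 48 hours, with cells grown in 96-well plates and compounds tested at five concentrations. At the GI50, growth is halved.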 Calls of active or inactive are those of the source. No stated cut-off is given here; in the data, active = GI50 up to about 1.1 µM and inactive = higher.

What was measured:
Assay in all cases: growth of human tumour cells (NCI), 48 h
NCI/ADR-RES = test system: NCI/ADR-RES
SNB-75 = test system: SNB-75
786-0 = test system: 786-0
MCF7 = test system: MCF7
SK-MEL-2 = test system: SK-MEL-2
NCI-H460 = test system: NCI-H460
HT-29 = test system: HT-29
HCC 2998 = test system: HCC 2998
MDA-MB-231 = test system: MDA-MB-231
T47D = test system: T47D
HOP-62 = test system: HOP-62
HCT-116 = test system: HCT-116
PC-3 = test system: PC-3
NCI-H23 = test system: NCI-H23
RPMI-8226 = test system: RPMI-8226
LOX IMVI = test system: LOX IMVI
HL-60 = test system: HL-60
NCI-H522 = test system: NCI-H522
MDA-N = test system: MDA-N

Measured: GI50

O=[N+]([O-])C(/C(Cl)=C(/Cl)N1CCOCC1)=C1\Nc2ccccc2O1
inactive: NCI/ADR-RES 83.2 µM | SNB-75 > 100 µM | 786-0 > 100 µM | MCF7 > 100 µM | SK-MEL-2 > 100 µM | NCI-H460 12.7 µM | HT-29 > 100 µM | HCC 2998 16.1 µM | MDA-MB-231 > 100 µM | T47D > 100 µM | HOP-62 > 100 µM | HCT-116 > 100 µM | PC-3 > 100 µM | NCI-H23 > 100 µM | RPMI-8226 > 100 µM

O=C1OC(c2ccccc2)=N/C1=C/NC(Cc1ccc(O)cc1)C(=O)O (stereo not drawn)
inactive: SNB-75 > 100 µM | 786-0 > 100 µM | LOX IMVI > 100 µM | HL-60 > 100 µM | SK-MEL-2 > 100 µM | NCI-H460 > 100 µM | HT-29 > 100 µM | HCC 2998 > 100 µM | HOP-62 > 100 µM | HCT-116 > 100 µM | NCI-H23 > 100 µM | NCI-H522 > 100 µM | RPMI-8226 > 100 µM

CCOC(=O)c1c(Br)c(-c2ccc(OC)cc2)c(Br)n1C
inactive: NCI/ADR-RES 5.18 µM | SNB-75 1.94 µM | 786-0 21.6 µM | MCF7 8.39 µM | LOX IMVI 7.14 µM | HL-60 4.06 µM | SK-MEL-2 19.2 µM | NCI-H460 52.2 µM | HT-29 12.7 µM | HCC 2998 > 10 µM | MDA-MB-231 17 µM | T47D 13.4 µM | HOP-62 11.8 µM | HCT-116 6.56 µM | PC-3 11.1 µM | NCI-H23 28 µM | NCI-H522 6.62 µM | RPMI-8226 17.7 µM

CCC(C=O)P1(=O)OC(C)(C)CN1C(C)(C)C (stereo not drawn)
inactive: NCI/ADR-RES 92.3 µM | 786-0 > 100 µM | MCF7 84.3 µM | LOX IMVI > 100 µM | SK-MEL-2 34.9 µM | NCI-H460 > 100 µM | HT-29 > 100 µM | HCC 2998 76.7 µM | MDA-MB-231 > 100 µM | T47D 31.6 µM | HOP-62 62.5 µM | HCT-116 59.8 µM | PC-3 84.3 µM | NCI-H23 > 100 µM | RPMI-8226 65.3 µM

Oc1cccc(/C=N/N=c2/[nH][nH]/c(=N/N=C/c3cccc(O)c3)c3ccccc23)c1
inactive: NCI/ADR-RES 22.2 µM | SNB-75 12.9 µM | 786-0 13.7 µM | MCF7 26.7 µM | LOX IMVI 11.7 µM | SK-MEL-2 22.6 µM | NCI-H460 21.4 µM | HT-29 24.1 µM | MDA-MB-231 7.89 µM | T47D 15.7 µM | HOP-62 12.5 µM | HCT-116 11.5 µM | PC-3 15.8 µM | NCI-H23 16.2 µM | NCI-H522 17.3 µM | RPMI-8226 11.5 µM

COC(=O)Cc1ccc2c(c1)Sc1ccc(CC(=O)OC)cc1N2C
inactive: NCI/ADR-RES 16.3 µM | SNB-75 > 47.2 µM | 786-0 25.5 µM | MCF7 9.57 µM | LOX IMVI 14.3 µM | HL-60 20.7 µM | SK-MEL-2 51.4 µM | NCI-H460 33.1 µM | HT-29 10.8 µM | HCC 2998 54 µM | MDA-MB-231 13.4 µM | T47D 32.2 µM | HOP-62 27.4 µM | HCT-116 24.1 µM | PC-3 25.8 µM | NCI-H23 28.6 µM | NCI-H522 9.75 µM | RPMI-8226 39.1 µM

c1ccc(/N=c2/[nH]c3ccccc3s/c2=N/c2ccccc2)cc1
inactive: NCI/ADR-RES > 100 µM | SNB-75 > 100 µM | 786-0 > 100 µM | LOX IMVI > 100 µM | HL-60 > 100 µM | SK-MEL-2 77.1 µM | NCI-H460 28.1 µM | HT-29 82 µM | HCC 2998 42.7 µM | MDA-MB-231 > 100 µM | T47D 93.8 µM | HOP-62 > 100 µM | HCT-116 > 100 µM | PC-3 > 100 µM | NCI-H23 > 100 µM | NCI-H522 26.3 µM | RPMI-8226 > 100 µM

O=C1Nc2cc([N+](=O)[O-])ccc2C(=O)N2CCC[C@@H]12
inactive: NCI/ADR-RES > 100 µM | SNB-75 > 100 µM | 786-0 > 100 µM | MCF7 > 100 µM | LOX IMVI > 100 µM | HL-60 > 100 µM | SK-MEL-2 > 100 µM | NCI-H460 > 100 µM | HT-29 > 100 µM | HCC 2998 > 100 µM | MDA-MB-231 > 100 µM | T47D > 100 µM | HOP-62 > 100 µM | HCT-116 > 100 µM | PC-3 > 100 µM | NCI-H23 > 100 µM | NCI-H522 > 100 µM | RPMI-8226 > 100 µM

CCOC(=O)c1nc2c3c(ncn2n1)Oc1c(c(-c2ccccc2)nn1-c1ccccc1)C3c1ccc(OC)c(OC)c1 (stereo not drawn)
inactive: MDA-N > 100 µM | NCI/ADR-RES 57.7 µM | SNB-75 31.3 µM | 786-0 31 µM | MCF7 > 100 µM | LOX IMVI > 100 µM | SK-MEL-2 > 100 µM | NCI-H460 22.3 µM | HT-29 > 100 µM | HCC 2998 > 100 µM | MDA-MB-231 37.2 µM | HOP-62 16.3 µM | HCT-116 65.2 µM | PC-3 > 100 µM | NCI-H23 > 100 µM | NCI-H522 > 100 µM | RPMI-8226 25.9 µM

O=C(O)CCCNc1ncc2c(n1)-c1ccccc1OC2
inactive: MDA-N > 100 µM | NCI/ADR-RES > 100 µM | SNB-75 33.8 µM | 786-0 > 100 µM | MCF7 > 100 µM | LOX IMVI > 100 µM | HL-60 30.1 µM | SK-MEL-2 > 100 µM | NCI-H460 > 100 µM | HT-29 > 100 µM | MDA-MB-231 > 100 µM | HOP-62 > 100 µM | HCT-116 > 100 µM | PC-3 > 100 µM | NCI-H23 77.4 µM | NCI-H522 > 100 µM | RPMI-8226 > 100 µM

COc1ccc(CNc2nc(NCc3ccc(OC)cc3)nc(Nc3ccccc3)n2)cc1
inactive: NCI/ADR-RES 9.14 µM | SNB-75 4.13 µM | 786-0 49.7 µM | MCF7 5.18 µM | HL-60 2.44 µM | SK-MEL-2 > 100 µM | NCI-H460 7.16 µM | HT-29 1.93 µM | MDA-MB-231 24.1 µM | T47D > 100 µM | HOP-62 > 100 µM | HCT-116 11.4 µM | PC-3 5.69 µM | NCI-H23 12.4 µM | NCI-H522 5.73 µM | RPMI-8226 8.34 µM

CC(=O)O/C(C)=C\C(=O)O/N=C(\N)c1ccc(C)cc1
inactive: SNB-75 19.2 µM | 786-0 52 µM | LOX IMVI 34.4 µM | HL-60 21.1 µM | SK-MEL-2 28.6 µM | NCI-H460 29.6 µM | HT-29 35.6 µM | HCC 2998 > 100 µM | HOP-62 33.1 µM | HCT-116 19.9 µM | NCI-H23 22.2 µM | NCI-H522 21 µM | RPMI-8226 31 µM
